Where two headings read alike, the source gives them in different places. Where a SMILES comes first, the peptide text is derived from it. Where no end group is shown, it is not given here.
Key:
ACE [1] = molecular target: T1, ACE (Homo sapiens, UniProt P12821); settings: read-out: IC50, ACE inhibition, cited from earlier work
ACE [2] = molecular target: T1, ACE; test: ACE-inhibitory activity assay of synthetic peptides (HHL substrate, hippuric acid by RP-HPLC); type: biochemical; settings: for inhibition at 1000 µg/mL: 0.75 h, peptide 1 mg/mL; for IC50: Table 2, top 8 peptides
Method: The peptides were prepared by the fmoc solid-phase method (purity ≥ 98% by HPLC) at Genscript Biotech Corporation (Nanjing, China). ACE-inhibitory activity of the synthesized peptides was evaluated according to the method of Ma. et al., with some modifications. In brief, 50 µL of sample was added into 150 µL of 5 mmol·L^−1 hippuryl-l-histidyl-l-leucine (HHL) and incubated for 10 min at 37 °C. Then, the enzymatic reaction was initiated by addition of 50 µL of 50 mU/mL ACE solution and kept at a constant temperature of 37 °C for 45 min. The reaction was then terminated by adding 250 µL of 1 mol·L^−1 HCl. RP-HPLC (Waters, Milford, MA, USA) was used to measure hippuric acid (HA) formation at 220 nm. […] The IC50 value represents the concentration of the peptide that inhibits 50% of ACE activity under the assay conditions.

ACE [3] = molecular target: T1, ACE; test: Surface plasmon resonance (SPR) assay; type: binding
Method: The affinity interaction between TLRFALHGME and ACE was verified by SPR experiments. In brief, 5 ug ACE was fixed on a COOH sensor chip by capture-coupling. Afterwards, 50–800 μmol·L^−1 of TLRFALHGME were injected sequentially into the chamber in PBS running buffer. The SPR assay was performed at 25 °C on an OpenSPRTM (Nicoya Lifesciences, Waterloo, QC, Canada). The conditions for the analysis were set at a flow rate of 20 μL·min^−1, the binding time was 240 s, and the disassociation time was 480 s. Chips were regenerated using a regeneration buffer (0.25% SDS). A one-to-one diffusion-corrected model was fitted to the wavelength shifts corresponding to the series of TLRFALHGME concentrations. The kinetic constant analysis was performed using TraceDrawer 1.9.1 software (Ridgeview Instruments AB, Uppsala, Sweden) to determine the association constant (Ka) and dissociation constant (Kd). The affinity constant (KD) was calculated as the ratio kd/ka.

hypertensive rats = tested on: hypertensive rats; set-up: method as in PMID 34783331; settings: cited from earlier work
[4] = attributed to multiple hydrophobic amino acids
[5] = molecular target: T2, angiotensin-I-converting enzyme (UniProt P12822 34-1260); test: cell-based or functional assay
T2 sequence (looked up): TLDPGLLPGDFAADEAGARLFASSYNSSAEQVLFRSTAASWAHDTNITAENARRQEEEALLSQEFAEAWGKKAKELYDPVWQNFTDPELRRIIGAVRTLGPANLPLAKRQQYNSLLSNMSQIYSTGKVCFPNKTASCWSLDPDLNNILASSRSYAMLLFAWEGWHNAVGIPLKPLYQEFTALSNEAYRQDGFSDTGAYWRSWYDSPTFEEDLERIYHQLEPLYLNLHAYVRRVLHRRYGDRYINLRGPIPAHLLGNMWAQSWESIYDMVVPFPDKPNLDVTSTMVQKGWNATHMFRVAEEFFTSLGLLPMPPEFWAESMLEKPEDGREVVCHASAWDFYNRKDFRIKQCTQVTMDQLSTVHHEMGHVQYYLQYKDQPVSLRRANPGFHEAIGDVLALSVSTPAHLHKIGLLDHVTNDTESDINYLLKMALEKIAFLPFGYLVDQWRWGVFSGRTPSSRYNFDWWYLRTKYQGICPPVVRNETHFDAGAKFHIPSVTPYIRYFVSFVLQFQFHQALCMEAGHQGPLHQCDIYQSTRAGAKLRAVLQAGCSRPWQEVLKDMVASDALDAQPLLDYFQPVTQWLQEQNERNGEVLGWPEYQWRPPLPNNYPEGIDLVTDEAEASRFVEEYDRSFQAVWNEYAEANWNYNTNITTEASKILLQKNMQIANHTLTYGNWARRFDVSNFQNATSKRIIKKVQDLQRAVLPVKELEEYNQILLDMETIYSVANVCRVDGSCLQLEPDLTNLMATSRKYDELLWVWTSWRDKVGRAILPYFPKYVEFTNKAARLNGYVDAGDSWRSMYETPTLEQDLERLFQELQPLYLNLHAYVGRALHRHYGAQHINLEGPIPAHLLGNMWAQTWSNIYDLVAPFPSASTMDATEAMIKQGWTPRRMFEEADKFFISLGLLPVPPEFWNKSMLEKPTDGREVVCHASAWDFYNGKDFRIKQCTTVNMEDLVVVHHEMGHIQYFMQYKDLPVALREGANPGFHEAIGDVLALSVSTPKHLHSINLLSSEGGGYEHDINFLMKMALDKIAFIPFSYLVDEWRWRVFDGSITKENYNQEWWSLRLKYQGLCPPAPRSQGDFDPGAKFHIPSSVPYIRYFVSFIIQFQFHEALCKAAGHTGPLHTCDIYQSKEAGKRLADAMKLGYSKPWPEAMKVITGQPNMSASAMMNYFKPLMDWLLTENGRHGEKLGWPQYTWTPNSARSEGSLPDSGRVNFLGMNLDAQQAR

[6] = molecular target: T2, angiotensin-I-converting enzyme
[7] = from Volutharpa ampullacea perryi hydrolysate, Zn-SBA-15-immobilized ACE and HPLC

T1 sequence (P12821 30-1306, species assumed): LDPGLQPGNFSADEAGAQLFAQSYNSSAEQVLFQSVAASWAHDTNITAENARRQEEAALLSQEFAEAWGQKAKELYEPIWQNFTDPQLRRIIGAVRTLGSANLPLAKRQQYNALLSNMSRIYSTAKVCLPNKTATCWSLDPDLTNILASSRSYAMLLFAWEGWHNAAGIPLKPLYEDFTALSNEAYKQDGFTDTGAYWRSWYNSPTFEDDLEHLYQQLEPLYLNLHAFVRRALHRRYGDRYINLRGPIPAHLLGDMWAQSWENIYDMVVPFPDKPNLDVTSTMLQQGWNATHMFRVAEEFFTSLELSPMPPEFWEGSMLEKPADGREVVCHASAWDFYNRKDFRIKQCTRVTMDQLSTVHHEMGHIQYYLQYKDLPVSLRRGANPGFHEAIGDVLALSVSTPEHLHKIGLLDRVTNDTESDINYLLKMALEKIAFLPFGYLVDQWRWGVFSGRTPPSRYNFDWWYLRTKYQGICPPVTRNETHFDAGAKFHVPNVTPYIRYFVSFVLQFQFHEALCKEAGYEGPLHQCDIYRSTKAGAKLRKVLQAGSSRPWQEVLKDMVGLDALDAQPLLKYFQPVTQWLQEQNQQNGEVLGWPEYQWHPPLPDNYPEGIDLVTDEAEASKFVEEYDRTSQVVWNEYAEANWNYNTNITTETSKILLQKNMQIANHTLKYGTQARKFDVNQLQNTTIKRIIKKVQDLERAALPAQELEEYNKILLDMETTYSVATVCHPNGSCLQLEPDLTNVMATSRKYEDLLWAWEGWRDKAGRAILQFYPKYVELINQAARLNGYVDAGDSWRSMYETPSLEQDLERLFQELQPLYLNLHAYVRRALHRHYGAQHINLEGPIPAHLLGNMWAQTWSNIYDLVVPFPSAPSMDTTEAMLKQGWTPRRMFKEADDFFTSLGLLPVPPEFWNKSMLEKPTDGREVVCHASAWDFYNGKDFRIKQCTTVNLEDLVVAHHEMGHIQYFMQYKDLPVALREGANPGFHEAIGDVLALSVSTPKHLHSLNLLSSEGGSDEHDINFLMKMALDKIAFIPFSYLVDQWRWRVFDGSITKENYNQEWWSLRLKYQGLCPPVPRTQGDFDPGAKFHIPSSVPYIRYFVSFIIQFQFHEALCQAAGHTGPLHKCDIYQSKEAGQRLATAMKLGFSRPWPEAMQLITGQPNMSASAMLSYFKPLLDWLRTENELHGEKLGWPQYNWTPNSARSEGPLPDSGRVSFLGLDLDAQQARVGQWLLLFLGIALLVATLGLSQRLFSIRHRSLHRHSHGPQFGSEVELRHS

## VYP
ACE [1]; from lizard fish protein hydrolysates, MA-IML
  IC50: 108 µM

## CC(C)C[C@H](NC(=O)[C@H](CC(C)C)NC(=O)[C@@H](NC(=O)[C@@H](N)[C@@H](C)O)C(C)C)C(=O)O [TVLL] (H-TVLL-OH; N-terminus and C-terminus assumed)
ACE [2]
  inhibition at 1000 µg/mL: > 50%
  IC50: 582 µM

## TLRFALHGME [TLRFALHGME]
ACE [2]
  inhibition at 1000 µg/mL: > 50%
  IC50: 93.5 µM
ACE [3]; 25 °C, 50–800 µmol·L^−1 peptide, read-out: Kd (dissociation rate constant)
  koff: 0.002 s⁻¹
ACE [3]; KD, printed in Figure 7
  Kd: 80.8 µM
ACE [3]; abstract, read-out: Kd (binding affinity to ACE)
  Kd: 80.9 µM

## WGAP
Hypertensive rats
  Reduction of diastolic blood pressure: ≤ 28.56 ± 2.71 mmHg
  Reduction of systolic blood pressure: up to 42.66 ± 2.87 mmHg

## TFTGA [TFTGA]
ACE [2]
  inhibition at 1000 µg/mL: > 50%
  IC50: 694 µM

## RSTGALAL [RSTGALAL]
ACE [2]
  inhibition at 1000 µg/mL: > 50%
  IC50: 5840 µM

## CC(C)C[C@H](NC(=O)[C@H](CC(C)C)NC(=O)[C@@H](NC(=O)[C@@H](N)Cc1ccc(O)cc1)C(C)C)C(=O)O [YVLL] (H-YVLL-OH; N-terminus and C-terminus assumed)
ACE [2]
  inhibition at 1000 µg/mL: > 50%
  IC50: 154 µM

## CC(C)C[C@H](NC(=O)[C@@H](N)C(C)C)C(=O)NCC(=O)N[C@@H](C)C(=O)O [VLGA] (H-VLGA-OH; N-terminus and C-terminus assumed)
ACE [2]
  inhibition at 1000 µg/mL: > 50%
  IC50: 1370 µM

## IVTNWDDMEL
ACE [1]; [7]
  IC50: 2080 µM

## TLFGL [TLFGL]
[4]
  Solubility: low solubility
ACE [2]
  inhibition at 1000 µg/mL: > 50%
  IC50: 57.5 µM

## VGPAGRPG
ACE [1]; [7]
  IC50: 4660 µM

## CC(C)C[C@H](NC(=O)[C@H](C)NC(=O)[C@H](C)NC(=O)[C@@H](N)CO)C(=O)O [SAAL] (H-SAAL-OH; N-terminus and C-terminus assumed)
ACE [2]
  inhibition at 1000 µg/mL: > 50%
  IC50: 883 µM

## TLFGL
[5]
  ACE-inhibitory activity (hippuric acid formed from HHL, RP-HPLC), IC50: 57.5 µM

## VLGA
[6]
  ACE-inhibitory activity (hippuric acid formed from HHL, RP-HPLC), IC50: 1370 µM

## TFTGA
[5]
  ACE-inhibitory activity (hippuric acid formed from HHL, RP-HPLC), IC50: 694 µM

B1: TLRFALHGME (peptide)
peptide: TLRFALHGME
notes: source: Takifugu flavidus skin hydrolysate (alcalase, <1 kDa fraction); also synthetic peptide (Fmoc solid phase, Genscript)
[5]
  ACE-inhibitory activity (hippuric acid formed from HHL, RP-HPLC), IC50: 93.5 µM

## TVLL
[6]
  ACE-inhibitory activity (hippuric acid formed from HHL, RP-HPLC), IC50: 582 µM

## RSTGALAL
[5]
  ACE-inhibitory activity (hippuric acid formed from HHL, RP-HPLC), IC50: 5840 µM

## SAAL
[6]
  ACE-inhibitory activity (hippuric acid formed from HHL, RP-HPLC), IC50: 883 µM

## YVLL
[6]
  ACE-inhibitory activity (hippuric acid formed from HHL, RP-HPLC), IC50: 154 µM

— paper PMC10608451, “Affinity Purification and Molecular Characterization of Angiotensin-Converting Enzyme (ACE)-Inhibitory Peptides from Takifugu flavidus” (Marine Drugs, 2023)
